The record followed here is PubChem BioAssay AID1919002 (Molecular Pharmacology Branch, DTP, NCI, 2023).

Several values for one entry are separate records, joined by “and”; a condition that tells them apart may be missing. Equal entries are not always repeated.

The experiment has as its system 743489-274-T-PDC complex spheroid growth. The experiment in a line: Anticancer human tumor 743489-274-T-PDC patient-derived renal cell carcinoma cell line growth inhibition [AhR]. As to conditions: for viability, T/C: stronger effect = lower value. The essentials:
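Agents were dosed in half-log steps down from roughly clinical Cmax, or from 10 microM where Cmax was unknown, alone and with AhR antagonists. Read-out: percent test/control growth of tumor spheroids containing HUVEC and MSC stromal cells.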

Where [1] appears, read: curve of first compound, second compound 0.1 µM.
Where [2] appears, read: curve of first compound, second compound 0.316 µM.
Setting [3] is: curve of first compound, second compound 1 µM.
The mark [4] stands for this setting: curve of first compound, second compound 3.16 µM.
The mark [5] stands for this setting: curve of first compound, second compound 10 µM.
The mark [6] stands for this setting: second compound 0.1 µM, first compound 0.0316 µM.
[7] abbreviates: second compound 0.1 µM, first compound 0.1 µM.
[8] abbreviates: second compound 0.1 µM, first compound 0.316 µM.
The mark [9] stands for this setting: second compound 0.1 µM, first compound 1 µM.
The mark [10] stands for this setting: second compound 0.1 µM, first compound 3.16 µM.
Setting [11] is: second compound 0.1 µM, first compound 10 µM.
The mark [12] stands for this setting: second compound 0.316 µM, first compound 0.0316 µM.
Setting [13] is: second compound 0.316 µM, first compound 0.1 µM.
[14] abbreviates: second compound 0.316 µM, first compound 0.316 µM.
Where [15] appears, read: second compound 0.316 µM, first compound 1 µM.
The mark [16] stands for this setting: second compound 0.316 µM, first compound 3.16 µM.
Where [17] appears, read: second compound 0.316 µM, first compound 10 µM.
Where [18] appears, read: second compound 1 µM, first compound 0.0316 µM.
Setting [19] is: second compound 1 µM, first compound 0.1 µM.
The mark [20] stands for this setting: second compound 1 µM, first compound 0.316 µM.
Setting [21] is: second compound 1 µM, first compound 1 µM.
Where [22] appears, read: second compound 1 µM, first compound 3.16 µM.
The mark [23] stands for this setting: second compound 1 µM, first compound 10 µM.
The mark [24] stands for this setting: second compound 3.16 µM, first compound 0.0316 µM.
[25] abbreviates: second compound 3.16 µM, first compound 0.1 µM.
[26] abbreviates: second compound 3.16 µM, first compound 0.316 µM.
Where [27] appears, read: second compound 3.16 µM, first compound 1 µM.
Setting [28] is: second compound 3.16 µM, first compound 3.16 µM.
Where [29] appears, read: second compound 3.16 µM, first compound 10 µM.
Where [30] appears, read: second compound 10 µM, first compound 0.0316 µM.
Where [31] appears, read: second compound 10 µM, first compound 0.1 µM.
Where [32] appears, read: second compound 10 µM, first compound 0.316 µM.
The mark [33] stands for this setting: second compound 10 µM, first compound 1 µM.
Setting [34] is: second compound 10 µM, first compound 3.16 µM.
The mark [35] stands for this setting: second compound 10 µM, first compound 10 µM.
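Further: spheroids exposed to agents for 7 days before readout.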
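Wherever viability, T/C is given: 100% = DMSO vehicle control wells.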

As usually defined, the IC50 is the concentration that inhibits the measured activity by half. By viability, T/C is commonly meant the ratio of treated to control. Regarding `O=C(c1cc(Cc2n[nH]c(=O)c3ccccc23)ccc1F)N1CCN(C(=O)C2CC2)CC1` + Cc1cncc(-c2nc(NCCc3c[nH]c4ccccc34)c3ncn(C(C)C)c3n2)c1, the IC50 under setting [1] was above 10 µM; the IC50 under setting [2] was above 10 µM; the IC50 under setting [3] was above 10 µM; the IC50 under setting [4] was above 10 µM; the IC50 under setting [5] was above 10 µM. For the same molecule, the viability, T/C runs as follows: under setting [6], 91.6%; under setting [7], 96.4%; under setting [8], 99%; under setting [9], 88.3%; under setting [10], 86.1%; under setting [11], 85.6%. Also, the viability, T/C by setting is: under setting [12], 87.1%; under setting [13], 84.4%; under setting [14], 94.2%; under setting [15], 86.2%; under setting [16], 82.1%; under setting [17], 88.4%. In addition, the viability, T/C reads like this: under setting [18], 98.8%; under setting [19], 99.9%; under setting [20], 94.5%; under setting [21], 93.2%; under setting [22], 89.9%; under setting [23], 85.4%. Also, the viability, T/C runs as follows: under setting [24], 93.3%; under setting [25], 102%; under setting [26], 100%; under setting [27], 90%; under setting [28], 85.7%; under setting [29], 95.1%. The viability, T/C is, setting by setting: under setting [30], 104%; under setting [31], 102%; under setting [32], 111%; under setting [33], 102%; under setting [34], 105%; under setting [35], 103%.
For the molecule `COc1cc(Nc2ncc3c(n2)-c2ccc(Cl)cc2C(c2c(F)cccc2OC)=NC3)ccc1C(=O)O`, the viability, T/C is 106% and 98.6% and 103% (compound 0.0316 µM); 105% and 95.3% and 116% (compound 0.1 µM); 92% and 95.6% and 98.8% (compound 0.316 µM); 91.3% and 90.4% and 99.3% (compound 1 µM); 90.3% and 92.1% and 91.2% (compound 3.16 µM); 102% and 87.5% and 94.5% (compound 10 µM). In addition, the IC50 (curve of compound) was above 10 µM.
On to `CC1COCCN1c1cc(-c2ccnn2C)c2ccnc(-c3ccn[nH]3)c2n1` (centres undefined), for which the viability, T/C (compound 0.00316 µM) is 112% and 105% and 104%; the viability, T/C (compound 0.01 µM) is 106% and 114% and 100%; the viability, T/C (compound 0.0316 µM) was 101% (2×) and 104%; the viability, T/C (compound 0.1 µM) is 106% and 102% and 103%; the viability, T/C (compound 0.316 µM) was 101% and 86.3% and 100%; the viability, T/C (compound 1 µM) was 85.1% and 68% and 73.8%. Also, for the setting “curve of compound”, the IC50 was above 1 µM.
Take `CC1COCCN1c1cc(C2(S(C)(=N)=O)CC2)nc(-c2ccnc3[nH]ccc23)n1` (centres undefined) + CC(CO)NC(=O)c1cc(-c2ccc(Cl)cc2)nn(-c2cnn(C)c2)c1=O: the IC50 is above 10 µM under setting [1]; above 10 µM under setting [2]; above 10 µM under setting [3]; above 10 µM under setting [4]; above 10 µM under setting [5]. The viability, T/C runs as follows: under setting [6], 97.5%; under setting [7], 89.1%; under setting [8], 94.7%; under setting [9], 92%; under setting [10], 98.7%; under setting [11], 96.7%. For the same molecule, the viability, T/C is 90.2% under setting [12]; 99.5% under setting [13]; 96.3% under setting [14]; 86.2% under setting [15]; 85.3% under setting [16]; 91.3% under setting [17]. Also, the viability, T/C under setting [18] is 99%; the viability, T/C under setting [19] is 84.7%; the viability, T/C under setting [20] was 95.3%; the viability, T/C under setting [21] was 101%; the viability, T/C under setting [22] was 87.4%; the viability, T/C under setting [23] was 93%. Also, the viability, T/C reads like this: under setting [24], 92.7%; under setting [25], 86.8%; under setting [26], 86.1%; under setting [27], 90.3%; under setting [28], 84.5%; under setting [29], 103%. The viability, T/C under setting [30] is 109%; the viability, T/C under setting [31] is 94.2%; the viability, T/C under setting [32] was 89.9%; the viability, T/C under setting [33] is 83.3%; the viability, T/C under setting [34] was 93.7%; the viability, T/C under setting [35] was 102%.
